Assay results: ChEMBL document CHEMBL1201862, “PubChem BioAssay data set” (2004)
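How tested: cells in 96-well plates exposed to compound for 48 hours at five concentrations. Here, GI50 denotes the concentration required for 50% inhibition of growth.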 Activity calls are given as the source filed them. Rule as the data show it: active = GI50 up to about 1.1 µM and inactive = higher.

Experiments:
Experiment in all cases: NCI-60 cell line screen, 48 h
UACC-257 = system: UACC-257
TK-10 = system: TK-10
NCI-H226 = system: NCI-H226
SF-268 = system: SF-268
HCT-116 = system: HCT-116
RXF 393 = system: RXF 393
CAKI-1 = system: CAKI-1
IGROV-1 = system: IGROV-1
SF-295 = system: SF-295
NCI-H460 = system: NCI-H460
ACHN = system: ACHN
COLO 205 = system: COLO 205
OVCAR-8 = system: OVCAR-8
786-0 = system: 786-0
OVCAR-4 = system: OVCAR-4
UO-31 = system: UO-31
SR = system: SR

Measured: GI50

O=[N+]([O-])c1ccc(C2=Nn3c(nnc3-c3ccccc3)SC2)o1
inactive: UACC-257 20 µM | TK-10 19.6 µM | NCI-H226 58.6 µM | SF-268 20.2 µM | HCT-116 17.6 µM | RXF 393 19.3 µM | CAKI-1 19.9 µM | IGROV-1 21.8 µM | SF-295 17.4 µM | NCI-H460 18.6 µM | ACHN 19.4 µM | COLO 205 21.4 µM | OVCAR-8 19.3 µM | 786-0 20.8 µM | OVCAR-4 19.6 µM

N=C(N)NS(=O)(=O)c1ccc(NC(=O)c2cccc3cc4ccccc4nc23)cc1
inactive: UACC-257 > 100 µM | TK-10 > 100 µM | NCI-H226 9.75 µM | SF-268 88.5 µM | HCT-116 19.3 µM | RXF 393 > 100 µM | CAKI-1 > 100 µM | IGROV-1 > 100 µM | UO-31 > 100 µM | SF-295 > 100 µM | NCI-H460 > 100 µM | ACHN 93.8 µM | COLO 205 > 100 µM | OVCAR-8 14.5 µM | 786-0 67.9 µM | OVCAR-4 28 µM

Cc1cc2nc3c(=O)[nH]c(=O)nc-3n(CC(O)C(O)C(O)CO)c2cc1N (stereo not given)
inactive: TK-10 > 100 µM | NCI-H226 > 100 µM | HCT-116 > 100 µM | IGROV-1 > 100 µM | UO-31 > 100 µM | SF-295 > 100 µM | NCI-H460 > 100 µM | ACHN > 100 µM | COLO 205 > 100 µM | OVCAR-8 > 100 µM | 786-0 > 100 µM | OVCAR-4 > 100 µM

Cc1cccc(-n2c(N)c(-c3nc4ccccc4[nH]3)sc2=S)c1
inactive: UACC-257 28.6 µM | TK-10 29.5 µM | NCI-H226 32.7 µM | SF-268 76.6 µM | RXF 393 33.3 µM | CAKI-1 47.4 µM | IGROV-1 30.8 µM | UO-31 33 µM | SF-295 28.1 µM | ACHN 23.9 µM | COLO 205 23.8 µM | OVCAR-8 28.4 µM | 786-0 24.4 µM | OVCAR-4 43.4 µM

Cc1nc2ccccc2nc1CC(=O)C(=O)Nc1ccc(Cl)cc1Cl
inactive: UACC-257 > 100 µM | TK-10 > 100 µM | SF-268 > 100 µM | HCT-116 > 100 µM | RXF 393 > 100 µM | CAKI-1 > 100 µM | IGROV-1 > 100 µM | UO-31 > 100 µM | SF-295 > 100 µM | NCI-H460 > 100 µM | ACHN > 100 µM | COLO 205 > 100 µM | OVCAR-8 > 100 µM | 786-0 > 100 µM | OVCAR-4 > 100 µM

CC(C)=CC(=O)CC(=O)C(=O)Nc1ccc(C)c(C)c1
inactive: UACC-257 > 100 µM | TK-10 > 100 µM | NCI-H226 > 100 µM | SF-268 > 100 µM | SR > 100 µM | HCT-116 > 100 µM | CAKI-1 > 100 µM | IGROV-1 > 100 µM | UO-31 > 100 µM | SF-295 > 100 µM | ACHN > 100 µM | 786-0 > 100 µM

COc1ccc([N+]2=NC(c3ccc([N+](=O)[O-])cc3)=NN(c3ccccc3)C2)cc1
inactive: UACC-257 30.1 µM | TK-10 > 100 µM | NCI-H226 52.4 µM | SF-268 97.7 µM | SR 32.9 µM | HCT-116 46 µM | RXF 393 > 100 µM | IGROV-1 39 µM | UO-31 26.9 µM | SF-295 > 10 µM | NCI-H460 25.9 µM | ACHN 42.5 µM | COLO 205 68.2 µM | OVCAR-8 > 10 µM | 786-0 > 100 µM | OVCAR-4 22.6 µM

CC1OC(OC2C(CO)OC(O[C@H]3CC[C@@]4(C)C(=CC[C@H]5[C@@H]6C[C@@H]7O[C@]8(CC[C@@H](C)CN8)[C@@H](C)[C@@H]7[C@@]6(C)CC[C@@H]54)C3)C(O)C2O)C(O)C(O)C1O (stereo not given in full)
inactive: UACC-257 > 100 µM | TK-10 > 100 µM | SF-268 > 100 µM | HCT-116 > 100 µM | RXF 393 > 100 µM | CAKI-1 > 100 µM | IGROV-1 > 100 µM | UO-31 > 100 µM | SF-295 > 100 µM | NCI-H460 > 100 µM | ACHN > 100 µM | COLO 205 > 100 µM | OVCAR-8 > 100 µM | 786-0 > 100 µM | OVCAR-4 > 100 µM

CN/C(=N/C#N)NCc1ccccc1
inactive: UACC-257 > 100 µM | TK-10 > 100 µM | NCI-H226 > 100 µM | SF-268 > 100 µM | SR > 100 µM | HCT-116 > 100 µM | CAKI-1 > 100 µM | IGROV-1 > 100 µM | UO-31 > 100 µM | SF-295 > 100 µM | NCI-H460 > 100 µM | ACHN > 100 µM | COLO 205 > 100 µM | OVCAR-8 > 100 µM | 786-0 > 100 µM | OVCAR-4 > 100 µM

C=C[Si](C)(C)COC(=O)/C(C#N)=C/C=C/c1ccccc1
inactive: UACC-257 > 100 µM | NCI-H226 > 100 µM | SF-268 > 100 µM | SR 25.2 µM | HCT-116 > 100 µM | RXF 393 40.6 µM | IGROV-1 > 100 µM | UO-31 > 100 µM | SF-295 > 100 µM | NCI-H460 > 100 µM | ACHN > 100 µM | COLO 205 > 100 µM | OVCAR-8 > 100 µM | 786-0 > 100 µM | OVCAR-4 > 100 µM

NC(=O)c1c(-c2ccccc2)c(-c2ccccc2)cc2c(=O)c3ccccc3[nH]c12
inactive: UACC-257 40.6 µM | TK-10 18.5 µM | SF-268 39 µM | HCT-116 14.4 µM | IGROV-1 22.1 µM | UO-31 33.7 µM | SF-295 40.4 µM | NCI-H460 22.2 µM | ACHN 16.4 µM | COLO 205 29 µM | OVCAR-8 20.8 µM | 786-0 8.53 µM | OVCAR-4 12.5 µM

O=C(O)[C@H](NS(=O)(=O)c1ccc(F)cc1)c1ccccc1
inactive: UACC-257 > 100 µM | TK-10 > 100 µM | NCI-H226 > 100 µM | SF-268 > 100 µM | HCT-116 > 100 µM | RXF 393 > 100 µM | CAKI-1 > 100 µM | IGROV-1 > 100 µM | UO-31 > 100 µM | SF-295 > 100 µM | NCI-H460 > 100 µM | ACHN > 100 µM | COLO 205 > 100 µM | OVCAR-8 > 100 µM | 786-0 > 100 µM | OVCAR-4 > 100 µM

CC12CC(=O)NN=C1c1ccccc1C2 (stereo not given)
inactive: UACC-257 > 100 µM | TK-10 > 100 µM | NCI-H226 > 100 µM | SF-268 > 100 µM | HCT-116 > 100 µM | RXF 393 > 100 µM | CAKI-1 > 100 µM | IGROV-1 > 100 µM | UO-31 > 100 µM | SF-295 > 100 µM | NCI-H460 > 100 µM | ACHN > 100 µM | COLO 205 > 100 µM | OVCAR-8 > 100 µM | 786-0 > 100 µM
